Assays:
[1] = tested on: Monocotyledonous and dicotyledonous test plants; test: Example B1 herbicidal action, application pre-emergence (Table B1b); format: in vivo; settings: 250 g/ha, evaluated after 4 weeks
Outline: (§1)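 Compounds sprayed as aqueous solution from acetone/Emulsogen EL/NMP/dipropylene glycol monomethyl ether/X-77 formulation onto soil right after sowing (pre-emergence) or onto 8–9-day plants (post-emergence); greenhouse-grown. Damage scored 0 (none) to 10 (total) after 4 weeks pre- or 3 weeks post-emergence.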

[2] = tested on: Monocotyledonous and dicotyledonous test plants; test: Example B1 herbicidal action, application post-emergence (Table B1a); format: in vivo; settings: 250 g/ha, evaluated after 3 weeks, scale 0-10
Outline: as §1

[3] = tested on: Monocotyledonous and dicotyledonous test plants; test: Example B2 herbicidal action, application pre-emergence, 96-cell seed trays (Table B2b); format: in vivo; settings: 1000 g/ha
Protocol: Monocotyledonous and dicotyledonous test plants were sown in sterilised standard soil in seed trays each having 96 cells. After one day (pre-emergence) or after 8 to 9 days cultivation (post-emergence) under controlled conditions in a climatic chamber (cultivation at 17/23° C.; 13 hours light; 50-60% humidity; after application at 19/24° C.), the plants were treated with an aqueous spray solution of 1000 mg/l of the active ingredient used (rate of application: […]; incl. 10% DMSO as solvent). The plants were grown on in the climatic chamber until the test was evaluated (10 total damage to plant, 0=no damage to plant) after 9 or 13 days.

melting point [°C]	Compound	herbicidal action (damage rating 0-10), Amaranthus [1]	herbicidal action (damage rating 0-10), Setaria [1]	herbicidal action (damage rating 0-10), Sida [1]	herbicidal action (damage rating 0-10), Digitaria [1]	herbicidal action (damage rating 0-10), Panicum [1]	herbicidal damage rating, Abutilon [2]	herbicidal damage rating, Digitaria [2]	herbicidal damage rating, Panicum [2]	herbicidal damage rating, Setaria [2]	herbicidal damage rating, Sida [2]	herbicidal action (damage rating 0-10), Agrostis [3]	herbicidal action (damage rating 0-10), Digitaria [3]	herbicidal action (damage rating 0-10), Poa [3]	herbicidal action (damage rating 0-10), Setaria [3]	herbicidal damage rating, Amaranthus ([2]; Amaranthus)
99	COc1cc(C(F)S(=O)(=O)C2=NOC(C)(C)C2)on1 (stereo not shown) [Compound No. 5.03, 5-[(5,5-dimethyl-4,5-dihydroisoxazole-3-sulfonyl)-fluoromethyl]-3-methoxy-isoxazole]	10	9	2	–	–	–	–	–	–	–	–	–	–	–	–
102	COCC(c1c(F)cccc1F)S(=O)(=O)C1=NOC(C)(C)C1 (stereo not shown) [Compound No. 1.51, 3-[1-(2,6-difluoro-phenyl)-2-methoxy-ethanesulfonyl]-5,5-dimethyl-4,5-dihydroisoxazole]	8	8	0	9	9	–	–	–	–	–	–	–	–	–	–
89	Cc1cccc(C(Cl)(Cl)S(=O)(=O)C2=NOC(C)(C)C2)c1 [Compound No. 1.31, 3-[dichloro-m-tolyl-methanesulfonyl]-5,5-dimethyl-4,5-dihydroisoxazole]	0	7	0	9	9	3	1	7	0	7	9	9	9	10	–
126	CC1(C)CC(S(=O)(=O)C(Cl)(Cl)c2c(F)cccc2F)=NO1 [Compound No. 1.26, 3-[dichloro-(2,6-difluoro-phenyl)-methanesulfonyl]-5,5-dimethyl-4,5-dihydroisoxazole]	10	10	4	9	10	4	4	3	5	–	10	10	10	9	–
119	CC1(C)CC(S(=O)(=O)C(Cl)(Br)c2c(F)cccc2F)=NO1 (stereo not shown) [Compound No. 1.53, 3-[bromo-chloro-(2,6-difluorophenyl)-methanesulfonyl]-5,5-dimethyl-4,5-dihydroisoxazole]	9	10	5	10	10	5	7	7	7	2	–	–	–	–	7
102	Cc1cccc(C(Cl)S(=O)(=O)C2=NOC(C)(C)C2)c1 (stereo not shown) [Compound No. 1.30, 3-[chloro-m-tolyl-methanesulfonyl]-5,5-dimethyl-4,5-dihydroisoxazole]	0	9	2	9	10	–	–	–	–	–	10	10	10	10	–
116	CC(=O)C(c1c(F)cccc1F)S(=O)(=O)C1=NOC(C)(C)C1 (stereo not shown) [Compound No. 1.27, 1-(2,6-difluorophenyl)-1-(5,5-dimethyl-4,5-dihydroisoxazole-3-sulfonyl)-propan-2-one]	7	5	2	4	9	4	2	5	3	4	10	9	9	9	–
175	CC1(C)CC(S(=O)(=O)C(C(N)=O)c2c(F)cccc2F)=NO1 (stereo not shown) [Compound No. 1.23, 2-(2,6-difluoro-phenyl)-2-(5,5-dimethyl-4,5-dihydroisoxazole-3-sulfonyl)-acetamide]	7	7	0	4	10	–	–	–	–	–	10	8	10	8	–
129	CC1(C)CC(S(=O)(=O)C(F)(Cl)c2c(F)cccc2F)=NO1 (stereo not shown) [Compound No. 1.21, 3-[chloro-(2,6-difluoro-phenyl)-fluoro-methanesulfonyl]-5,5-dimethyl-4,5-dihydroisoxazole]	10	10	9	10	10	7	7	9	7	5	10	10	10	9	–
117	C=CC1CC1(c1c(F)cccc1F)S(=O)(=O)C1=NOC(C)(C)C1 (stereo not shown) [Compound No. 1.46, 3-[1-(2,6-difluoro-phenyl)-2-vinylcylopropane-sulfonyl]-5,5-dimethyl-4,5-dihydroisoxazole]	3	3	0	6	5	–	–	–	–	–	–	–	–	–	–
156	CC1(C)CC(S(=O)(=O)C(I)c2c(F)cccc2F)=NO1 (stereo not shown) [Compound No. 1.25, 3-[(2,6-difluoro-phenyl)-iodo-methanesulfonyl]-5,5-dimethyl-4,5-dihydroisoxazole]	10	10	3	10	10	5	4	3	3	4	10	9	10	8	–
113	CC1(C)CC(S(=O)(=O)C(Cl)(CC=C(F)F)c2c(F)cccc2F)=NO1 (stereo not shown) [Compound No. 1.17, 3-[1-chloro-1-(2,6-difluoro-phenyl)-4,4-difluoro-but-3-ene-1-sulfonyl]-5,5-dimethyl-4,5-dihydroisoxazole]	–	–	–	–	–	–	–	–	–	–	–	–	–	–	–
70 to 75	Cc1c(Br)noc1C(F)(F)S(=O)(=O)C1=NOC(C)(C)C1 [Compound No. 5.06, 3-bromo-5-[(5,5-dimethyl-4,5-dihydroisoxazole-3-sulfonyl)-difluoro-methyl]-4-methyl-isoxazole]	–	–	–	–	–	–	–	–	–	–	–	–	–	–	–
95	CC1(C)CC(S(=O)(=O)C(Cc2ccc(F)cc2)c2c(F)cccc2F)=NO1 (stereo not shown) [Compound No. 1.05, 3-[1-(2,6-difluoro-phenyl)-2-(4-fluoro-phenyl)-ethanesulfonyl]-5,5-dimethyl-4,5-dihydroisoxazole]	–	–	–	–	–	–	–	–	–	–	–	–	–	–	–

Compound	melting point [°C]	herbicidal action (damage rating 0-10), Amaranthus [1]	herbicidal action (damage rating 0-10), Setaria [1]	herbicidal action (damage rating 0-10), Sida [1]	herbicidal action (damage rating 0-10), Digitaria [1]	herbicidal action (damage rating 0-10), Panicum [1]	herbicidal damage rating, Abutilon [2]	herbicidal damage rating, Digitaria [2]	herbicidal damage rating, Panicum [2]	herbicidal damage rating, Setaria [2]	herbicidal damage rating, Sida [2]	herbicidal action (damage rating 0-10), Agrostis [3]	herbicidal action (damage rating 0-10), Digitaria [3]	herbicidal action (damage rating 0-10), Poa [3]	herbicidal action (damage rating 0-10), Setaria [3]	herbicidal damage rating, Amaranthus ([2]; Amaranthus)
Cc1onc(C2CC2)c1C(Cl)S(=O)(=O)C1=NOC(C)(C)C1 (stereo not shown) [Compound No. 3.07, 4-[chloro-(5,5-dimethyl-4,5-dihydroisoxazole-3-sulfonyl)methyl]-3-cyclopropyl-5-methyl-isoxazole]	159	4	8	2	9	–	–	–	–	–	–	–	–	–	–	–
